Data as given in PubChem BioAssay AID1918940 (Molecular Pharmacology Branch, DTP, NCI, 2023).

System: NCI-H211 complex spheroid viability
Experiment: Anticancer human tumor NCI-H211 cell line growth inhibition [LSD1];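 note: luminescent viability read after seven days of drug exposure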;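 for viability, T/C: 100% = DMSO vehicle control viability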
Settings: for IC50: curve of first compound; for viability, T/C: stronger effect = lower value
Summary of the method: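 Complex spheroids of tumor cells with HUVEC and human MSCs, exposed to iadademstat combined with other agents. Each agent tested in half-log steps from near clinical Cmax (else 10 microM top), DMSO ≤0.25%.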

[1] = second compound 0.1 µM, first compound 0.000316 µM
[2] = second compound 0.1 µM, first compound 0.001 µM
[3] = second compound 0.1 µM, first compound 0.00316 µM
[4] = second compound 0.1 µM, first compound 0.01 µM
[5] = second compound 0.1 µM, first compound 0.0316 µM
[6] = second compound 0.1 µM, first compound 0.1 µM
[7] = second compound 0.316 µM, first compound 0.000316 µM
[8] = second compound 0.316 µM, first compound 0.001 µM
[9] = second compound 0.316 µM, first compound 0.00316 µM
[10] = second compound 0.316 µM, first compound 0.01 µM
[11] = second compound 0.316 µM, first compound 0.0316 µM
[12] = second compound 0.316 µM, first compound 0.1 µM
[13] = second compound 1 µM, first compound 0.000316 µM
[14] = second compound 1 µM, first compound 0.001 µM
[15] = second compound 1 µM, first compound 0.00316 µM
[16] = second compound 1 µM, first compound 0.01 µM
[17] = second compound 1 µM, first compound 0.0316 µM
[18] = second compound 1 µM, first compound 0.1 µM
[19] = second compound 3.16 µM, first compound 0.000316 µM
[20] = second compound 3.16 µM, first compound 0.001 µM
[21] = second compound 3.16 µM, first compound 0.00316 µM
[22] = second compound 3.16 µM, first compound 0.01 µM
[23] = second compound 3.16 µM, first compound 0.0316 µM
[24] = second compound 3.16 µM, first compound 0.1 µM
[25] = second compound 10 µM, first compound 0.000316 µM
[26] = second compound 10 µM, first compound 0.001 µM
[27] = second compound 10 µM, first compound 0.00316 µM
[28] = second compound 10 µM, first compound 0.01 µM
[29] = second compound 10 µM, first compound 0.0316 µM
[30] = second compound 10 µM, first compound 0.1 µM

`CC(C)CC(NC(=O)C(Cc1ccccc1)NC(=O)c1cnccn1)B(O)O` (stereo not given) + NC1CC1c1ccc(-c2cccc(O)c2)cc1 showed an IC50 (second compound 0.1 µM) of 3.45 nM, an IC50 (second compound 0.316 µM) of 3.26 nM and an IC50 (second compound 1 µM) of 2.99 nM. The IC50 (second compound 3.16 µM) was 3.46 nM, the IC50 (second compound 10 µM) was 1.78 nM and the viability, T/C [1] was 112%. For the same molecule, the viability, T/C [2] was 108%, the viability, T/C [3] was 54.1% and the viability, T/C [4] was 1.17%. It also gave a viability, T/C [5] of 0.06%, a viability, T/C [6] of 0.19% and a viability, T/C [7] of 107%. It also gave a viability, T/C [8] of 119%, a viability, T/C [9] of 51.4% and a viability, T/C [10] of 1.97%. For the same molecule, the viability, T/C [11] was 0.17%, the viability, T/C [12] was 0.17% and the viability, T/C [13] was 83.4%. For the same molecule, the viability, T/C [14] was 104%, the viability, T/C [15] was 47.8% and the viability, T/C [16] was 0.86%. For the same molecule, the viability, T/C [17] was 0.09%, the viability, T/C [18] was 0.18% and the viability, T/C [19] was 81.2%. For the same molecule, the viability, T/C [20] was 102%, the viability, T/C [21] was 54.2% and the viability, T/C [22] was 1.3%. For the same molecule, the viability, T/C [23] was 0.09%, the viability, T/C [24] was 0.19% and the viability, T/C [25] was 70.8%. It also gave a viability, T/C [26] of 74.1%, a viability, T/C [27] of 27.7% and a viability, T/C [28] of 0.47%. The viability, T/C [29] was 0.18% and the viability, T/C [30] was 0.27%.

In the case of `CC(C)CC(NC(=O)CNC(=O)c1cc(Cl)ccc1Cl)B1OC(=O)CC(CC(=O)O)(C(=O)O)O1` (stereo not given) + NC1CC1c1ccc(-c2cccc(O)c2)cc1, the IC50 (second compound 0.1 µM) is reported as 15.4 nM, the IC50 (second compound 0.316 µM) is reported as 16 nM and the IC50 (second compound 1 µM) is reported as 14.9 nM. For the same molecule, the IC50 (second compound 3.16 µM) was 13.9 nM, the IC50 (second compound 10 µM) was 7.26 nM and the viability, T/C [1] was 90.8%. For the same molecule, the viability, T/C [2] was 76.5%, the viability, T/C [3] was 82.2% and the viability, T/C [4] was 61.9%. The viability, T/C [5] was 29.3%, the viability, T/C [6] was 5.5% and the viability, T/C [7] was 91.6%. The viability, T/C [8] was 102%, the viability, T/C [9] was 97.5% and the viability, T/C [10] was 61.6%. For the same molecule, the viability, T/C [11] was 30%, the viability, T/C [12] was 5.69% and the viability, T/C [13] was 74.5%. For the same molecule, the viability, T/C [14] was 83.2%, the viability, T/C [15] was 96.7% and the viability, T/C [16] was 57.4%. The viability, T/C [17] was 27.8%, the viability, T/C [18] was 4.52% and the viability, T/C [19] was 75.3%. For the same molecule, the viability, T/C [20] was 82.8%, the viability, T/C [21] was 93.4% and the viability, T/C [22] was 56.5%. For the same molecule, the viability, T/C [23] was 24.5%, the viability, T/C [24] was 4.84% and the viability, T/C [25] was 71%. For the same molecule, the viability, T/C [26] was 70.3%, the viability, T/C [27] was 98.3% and the viability, T/C [28] was 38.5%. For the same molecule, the viability, T/C [29] was 17.4% and the viability, T/C [30] was 2.36%.

With `COc1cc(Nc2ncc3c(n2)-c2ccc(Cl)cc2C(c2c(F)cccc2OC)=NC3)ccc1C(=O)O` + NC1CC1c1ccc(-c2cccc(O)c2)cc1 the IC50 (second compound 0.1 µM) was less than 3.16 nM, the IC50 (second compound 0.316 µM) was less than 3.16 nM and the IC50 (second compound 1 µM) was less than 3.16 nM. For the same molecule, the IC50 (second compound 3.16 µM) was less than 3.16 nM, the IC50 (second compound 10 µM) was less than 3.16 nM and the viability, T/C [3] was 28.2%. It also gave a viability, T/C [4] of 5.72%, a viability, T/C [5] of 4.04% and a viability, T/C [6] of 3.29%. For the same molecule, the viability, T/C (second compound 0.1 µM, first compound 0.316 µM) was 4.66%, the viability, T/C (second compound 0.1 µM, first compound 1 µM) was 3.94% and the viability, T/C [9] was 37.7%. It also gave a viability, T/C [10] of 6.96%, a viability, T/C [11] of 3.41% and a viability, T/C [12] of 4.23%. For the same molecule, the viability, T/C (second compound 0.316 µM, first compound 0.316 µM) was 4.53%, the viability, T/C (second compound 0.316 µM, first compound 1 µM) was 3.46% and the viability, T/C [15] was 33.4%. The viability, T/C [16] was 6.82%, the viability, T/C [17] was 3.89% and the viability, T/C [18] was 4.49%. The viability, T/C (second compound 1 µM, first compound 0.316 µM) was 3.81%, the viability, T/C (second compound 1 µM, first compound 1 µM) was 3.95% and the viability, T/C [21] was 21.8%. For the same molecule, the viability, T/C [22] was 7.56%, the viability, T/C [23] was 4.05% and the viability, T/C [24] was 3.76%. For the same molecule, the viability, T/C (second compound 3.16 µM, first compound 0.316 µM) was 3.87%, the viability, T/C (second compound 3.16 µM, first compound 1 µM) was 3.54% and the viability, T/C [27] was 21.8%. The viability, T/C [28] was 6.88%, the viability, T/C [29] was 4.59% and the viability, T/C [30] was 4.93%. For the same molecule, the viability, T/C (second compound 10 µM, first compound 0.316 µM) was 5.57% and the viability, T/C (second compound 10 µM, first compound 1 µM) was 4.21%.
